Measurements published in patent US20220088016A1, “CANCER TREATMENT USING MULTI-TARGETED KINASE INHIBITOR IN COMBINATION OF PROTEIN KINASE BIOMARKERS” (ZHEJIANG CROWNMAB BIOTECH CO. LTD., priority 2019, published 2022).
pIC50: −log10 of the molar value.

Assays:
[1] = system: CD8 (T cell surface marker); assay: CD8 IHC test in MC-38 tumor; format: in vivo, mouse; details: MC-38 tumors; vs vehicle group
Procedure: (§1) MC38 tumor tissues were collected at the end of the in vivo efficacy trial. The tumor tissue was then embedded in paraffin. The expression of CD3/CD4/CD8/F4-80 were tested by immunohistochemistry stain.

PIK3CA (E545K) = PIK3CA (E545K) (Homo sapiens, UniProt P42336, E545K); assay: Kinase profiling; format: binding; details: read-out: % Ctrl @ 1000 nM
ABL1-nonphosphorylated = ABL1-nonphosphorylated (Homo sapiens, UniProt P00519); assay: Kinase profiling; format: binding; details: read-out: % Ctrl @ 1000 nM
FAK = FAK (Homo sapiens, UniProt Q05397); assay: Kinase profiling; format: binding; details: read-out: % Ctrl @ 1000 nM
p38-beta = p38-beta (Homo sapiens, UniProt Q15759); assay: Kinase profiling; format: binding; details: read-out: % Ctrl @ 1000 nM
MEK1 = target: T1, MEK1 (Homo sapiens, UniProt Q02750); assay: Kinase profiling; format: binding; details: read-out: % Ctrl @ 1000 nM
T1 construct: T7 phage fusion (stated for most kinases of the panel only); made in house; host or cells: T7 phage in E. coli (BL21-derived) or HEK-293 cells

p38-alpha = p38-alpha (Homo sapiens, UniProt Q16539); assay: Kinase profiling; format: binding; details: read-out: % Ctrl @ 1000 nM
MKK7 = target: T2, MKK7 (Homo sapiens, UniProt O14733); assay: Kinase profiling; format: binding; details: read-out: % Ctrl @ 1000 nM
T2 construct: T7 phage fusion (stated for most kinases of the panel only); made in house; host or cells: T7 phage in E. coli (BL21-derived) or HEK-293 cells

VPS34 = VPS34 (Homo sapiens, UniProt Q8NEB9); assay: Kinase profiling; format: binding; details: read-out: % Ctrl @ 1000 nM
PIK3CA (E542K) = PIK3CA (E542K) (Homo sapiens, UniProt P42336, E542K); assay: Kinase profiling; format: binding; details: read-out: % Ctrl @ 1000 nM
BLK = BLK (Homo sapiens, UniProt P51451); assay: Kinase profiling; format: binding; details: read-out: % Ctrl @ 1000 nM
FES = FES (Homo sapiens, UniProt P07332); assay: Kinase profiling; format: binding; details: read-out: % Ctrl @ 1000 nM
FRK = FRK (Homo sapiens, UniProt P42685); assay: Kinase profiling; format: binding; details: read-out: % Ctrl @ 1000 nM
PAK7 = PAK7 (Homo sapiens, UniProt Q9P286); assay: Kinase profiling; format: binding; details: read-out: % Ctrl @ 1000 nM
PRKCQ = PRKCQ (Homo sapiens, UniProt Q04759); assay: Kinase profiling; format: binding; details: read-out: % Ctrl @ 1000 nM
MET (Y1235D) = target: T3, MET (Y1235D) (Homo sapiens, UniProt P08581, Y1235D); assay: Kinase profiling; format: binding; details: read-out: % Ctrl @ 1000 nM
T3 construct: T7 phage fusion (stated for most kinases of the panel only); made in house; host or cells: T7 phage in E. coli (BL21-derived) or HEK-293 cells

EPHA7 = EPHA7 (Homo sapiens, UniProt Q15375); assay: Kinase profiling; format: binding; details: read-out: % Ctrl @ 1000 nM
[2] = target: ABL1 (Q252H)-nonphosphorylated (Homo sapiens, UniProt P00519, Q252H); assay: Kinase profiling; format: binding; details: read-out: % Ctrl @ 1000 nM
PIK3CD = PIK3CD (Homo sapiens, UniProt O00329); assay: Kinase profiling; format: binding; details: read-out: % Ctrl @ 1000 nM
SRPK3 = SRPK3 (Homo sapiens, UniProt Q9UPE1); assay: Kinase profiling; format: binding; details: read-out: % Ctrl @ 1000 nM
CLK1 = CLK1 (Homo sapiens, UniProt P49759); assay: Kinase profiling; format: binding; details: read-out: % Ctrl @ 1000 nM
RAW264.7 cells = assay: Proliferation of RAW264.7 cells (CTG assay); format: cell-based; details: RAW264.7 (CSF-1 independent, negative control), 3 days
Procedure: Two syngeneic cell lines M-NFS-60 and RAW264.7 and engineered BaF3 hCSFIR cell line were starved and then tested with CBT-102 and other test articles for 3 days in the temperature of 37° C., 5% CO2 and 95% humidity. The cell viability was then detected using CTG assay. The software of GraphPad Prism was used to calculate IC50.
CSF-1 dependent mouse myeloid M-NFS-60 cells were employed as target cells while a CSF-1 independent cell line Raw 264.7 was used as a negative control. In addition to CBT-102, the study also included 3 CSF-1R inhibitors: GW2580, BLZ945 and Pexidartinib.

MAP4K4 = MAP4K4 (Homo sapiens, UniProt O95819); assay: Kinase profiling; format: binding; details: read-out: % Ctrl @ 1000 nM
PHKG1 = PHKG1 (Homo sapiens, UniProt Q16816); assay: Kinase profiling; format: binding; details: read-out: % Ctrl @ 1000 nM
MKNK2 = target: T4, MKNK2 (Homo sapiens, UniProt Q9HBH9); assay: Kinase profiling; format: binding; details: read-out: % Ctrl @ 1000 nM
T4 construct: T7 phage fusion (stated for most kinases of the panel only); made in house; host or cells: T7 phage in E. coli (BL21-derived) or HEK-293 cells

MRCKB = target: T5, MRCKB (Homo sapiens, UniProt Q9Y5S2); assay: Kinase profiling; format: binding; details: read-out: % Ctrl @ 1000 nM
T5 construct: T7 phage fusion (stated for most kinases of the panel only); made in house; host or cells: T7 phage in E. coli (BL21-derived) or HEK-293 cells

IRAK1 = IRAK1 (Homo sapiens, UniProt P51617); assay: Kinase profiling; format: binding; details: read-out: % Ctrl @ 1000 nM
[3] = target: ABL1 (E255K)-phosphorylated (Homo sapiens, UniProt P00519, E255K); assay: Kinase profiling; format: binding; details: read-out: % Ctrl @ 1000 nM
IKK-epsilon = IKK-epsilon (Homo sapiens, UniProt Q14164); assay: Kinase profiling; format: binding; details: read-out: % Ctrl @ 1000 nM
[4] = system: CD3 (T cell surface marker); assay: CD3 IHC test in MC-38 tumor; format: in vivo, mouse; details: MC-38 tumors; vs vehicle group
Procedure: as §1

EGFR (E746-A750del) = EGFR (E746-A750del) (Homo sapiens, UniProt P00533, DEL746-750); assay: Kinase profiling; format: binding; details: read-out: % Ctrl @ 1000 nM
MLK2 = target: T6, MLK2 (Homo sapiens, UniProt Q02779); assay: Kinase profiling; format: binding; details: read-out: % Ctrl @ 1000 nM
T6 construct: T7 phage fusion (stated for most kinases of the panel only); made in house; host or cells: T7 phage in E. coli (BL21-derived) or HEK-293 cells

LOK = LOK (Homo sapiens, UniProt O94804); assay: Kinase profiling; format: binding; details: read-out: % Ctrl @ 1000 nM
TAOK3 = TAOK3 (Homo sapiens, UniProt Q9H2K8); assay: Kinase profiling; format: binding; details: read-out: % Ctrl @ 1000 nM

Sequence of FES (P07332 whole entry): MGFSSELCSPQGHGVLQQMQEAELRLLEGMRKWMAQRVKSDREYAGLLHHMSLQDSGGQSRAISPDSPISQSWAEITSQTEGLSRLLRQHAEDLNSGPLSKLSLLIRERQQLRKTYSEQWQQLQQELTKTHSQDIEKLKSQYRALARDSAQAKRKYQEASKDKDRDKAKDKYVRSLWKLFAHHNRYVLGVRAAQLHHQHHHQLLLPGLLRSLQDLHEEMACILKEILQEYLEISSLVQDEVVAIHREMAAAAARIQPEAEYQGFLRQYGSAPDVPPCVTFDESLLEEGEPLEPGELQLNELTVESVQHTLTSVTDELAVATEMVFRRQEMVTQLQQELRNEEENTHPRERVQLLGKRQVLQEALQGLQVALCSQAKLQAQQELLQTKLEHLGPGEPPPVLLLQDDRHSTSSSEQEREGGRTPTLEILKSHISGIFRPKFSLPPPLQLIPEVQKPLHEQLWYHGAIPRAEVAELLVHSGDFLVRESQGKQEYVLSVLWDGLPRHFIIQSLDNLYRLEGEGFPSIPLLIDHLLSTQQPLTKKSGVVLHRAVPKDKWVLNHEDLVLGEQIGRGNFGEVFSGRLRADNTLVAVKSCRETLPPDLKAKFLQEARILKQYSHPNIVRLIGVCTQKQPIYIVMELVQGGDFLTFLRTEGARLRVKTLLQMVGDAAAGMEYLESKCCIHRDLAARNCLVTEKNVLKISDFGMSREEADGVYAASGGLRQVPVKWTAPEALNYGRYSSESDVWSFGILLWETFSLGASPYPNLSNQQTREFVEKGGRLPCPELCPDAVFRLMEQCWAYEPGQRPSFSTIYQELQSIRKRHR
Sequence of EGFR (E746-A750del) (P00533 with tags, fused parts or gaps DEL746-750): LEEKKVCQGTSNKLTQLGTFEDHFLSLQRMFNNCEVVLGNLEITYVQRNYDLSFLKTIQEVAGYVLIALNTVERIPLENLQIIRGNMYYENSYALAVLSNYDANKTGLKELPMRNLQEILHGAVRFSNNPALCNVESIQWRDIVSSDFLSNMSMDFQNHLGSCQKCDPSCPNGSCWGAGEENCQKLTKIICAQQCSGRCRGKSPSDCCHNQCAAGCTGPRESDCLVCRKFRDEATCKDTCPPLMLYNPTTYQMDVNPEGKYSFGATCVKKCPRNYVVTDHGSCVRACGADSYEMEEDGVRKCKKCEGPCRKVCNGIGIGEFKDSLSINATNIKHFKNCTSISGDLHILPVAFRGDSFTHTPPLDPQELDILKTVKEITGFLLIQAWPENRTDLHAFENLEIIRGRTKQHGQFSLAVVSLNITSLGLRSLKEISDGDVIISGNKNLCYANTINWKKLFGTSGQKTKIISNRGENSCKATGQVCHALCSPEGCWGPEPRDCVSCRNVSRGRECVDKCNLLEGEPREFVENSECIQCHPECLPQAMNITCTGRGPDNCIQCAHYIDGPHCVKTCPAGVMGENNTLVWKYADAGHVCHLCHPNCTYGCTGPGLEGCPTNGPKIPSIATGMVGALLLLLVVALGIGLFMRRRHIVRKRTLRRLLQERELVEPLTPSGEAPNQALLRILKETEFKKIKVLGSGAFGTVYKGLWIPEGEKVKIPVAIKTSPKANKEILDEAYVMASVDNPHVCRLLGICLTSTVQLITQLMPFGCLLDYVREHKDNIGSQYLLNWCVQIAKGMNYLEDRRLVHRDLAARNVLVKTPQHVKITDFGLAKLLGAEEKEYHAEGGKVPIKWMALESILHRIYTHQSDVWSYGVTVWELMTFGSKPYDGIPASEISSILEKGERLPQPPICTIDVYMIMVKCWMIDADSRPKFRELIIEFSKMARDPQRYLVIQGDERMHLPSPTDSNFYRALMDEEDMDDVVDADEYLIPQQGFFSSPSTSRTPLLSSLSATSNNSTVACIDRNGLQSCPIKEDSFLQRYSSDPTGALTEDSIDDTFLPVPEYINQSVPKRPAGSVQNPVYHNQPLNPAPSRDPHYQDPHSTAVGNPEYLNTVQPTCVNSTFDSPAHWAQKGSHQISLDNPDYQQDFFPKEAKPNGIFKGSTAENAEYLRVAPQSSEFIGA
Sequence of FRK (P42685 whole entry): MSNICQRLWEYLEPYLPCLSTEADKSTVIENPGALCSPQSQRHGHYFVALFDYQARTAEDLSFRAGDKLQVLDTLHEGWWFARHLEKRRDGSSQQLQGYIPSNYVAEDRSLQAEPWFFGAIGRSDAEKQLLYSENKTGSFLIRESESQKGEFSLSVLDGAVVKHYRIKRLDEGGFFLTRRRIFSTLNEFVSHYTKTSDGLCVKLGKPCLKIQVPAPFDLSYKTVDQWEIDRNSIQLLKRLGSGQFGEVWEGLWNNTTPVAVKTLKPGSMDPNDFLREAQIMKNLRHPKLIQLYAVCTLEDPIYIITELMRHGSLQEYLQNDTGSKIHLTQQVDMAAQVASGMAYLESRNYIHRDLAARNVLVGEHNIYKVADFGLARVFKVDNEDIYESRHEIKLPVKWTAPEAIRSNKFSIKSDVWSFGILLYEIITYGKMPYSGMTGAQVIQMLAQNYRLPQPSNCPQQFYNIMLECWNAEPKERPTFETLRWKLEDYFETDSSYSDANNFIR
Sequence of IRAK1 (P51617 whole entry): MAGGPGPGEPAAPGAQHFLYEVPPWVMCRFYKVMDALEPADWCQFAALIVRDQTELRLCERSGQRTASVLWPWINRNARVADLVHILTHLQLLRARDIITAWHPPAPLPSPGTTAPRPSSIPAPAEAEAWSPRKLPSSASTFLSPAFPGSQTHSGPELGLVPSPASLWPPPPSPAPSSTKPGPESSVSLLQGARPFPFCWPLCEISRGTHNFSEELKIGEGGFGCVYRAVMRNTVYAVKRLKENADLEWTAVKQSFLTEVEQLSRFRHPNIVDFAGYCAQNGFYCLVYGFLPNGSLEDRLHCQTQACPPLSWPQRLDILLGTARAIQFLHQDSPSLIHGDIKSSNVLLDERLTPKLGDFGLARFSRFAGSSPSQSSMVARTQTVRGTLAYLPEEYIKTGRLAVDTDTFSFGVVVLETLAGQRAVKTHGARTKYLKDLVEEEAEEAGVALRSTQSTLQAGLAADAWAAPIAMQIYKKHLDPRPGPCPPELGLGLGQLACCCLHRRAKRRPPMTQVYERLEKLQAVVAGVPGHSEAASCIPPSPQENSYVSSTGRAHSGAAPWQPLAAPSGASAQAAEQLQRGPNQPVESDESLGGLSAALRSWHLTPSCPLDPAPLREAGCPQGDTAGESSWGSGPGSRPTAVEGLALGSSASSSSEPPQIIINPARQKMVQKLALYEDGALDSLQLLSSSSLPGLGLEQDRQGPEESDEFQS
T1 sequence (Q02750 whole entry, the tested form may be a part): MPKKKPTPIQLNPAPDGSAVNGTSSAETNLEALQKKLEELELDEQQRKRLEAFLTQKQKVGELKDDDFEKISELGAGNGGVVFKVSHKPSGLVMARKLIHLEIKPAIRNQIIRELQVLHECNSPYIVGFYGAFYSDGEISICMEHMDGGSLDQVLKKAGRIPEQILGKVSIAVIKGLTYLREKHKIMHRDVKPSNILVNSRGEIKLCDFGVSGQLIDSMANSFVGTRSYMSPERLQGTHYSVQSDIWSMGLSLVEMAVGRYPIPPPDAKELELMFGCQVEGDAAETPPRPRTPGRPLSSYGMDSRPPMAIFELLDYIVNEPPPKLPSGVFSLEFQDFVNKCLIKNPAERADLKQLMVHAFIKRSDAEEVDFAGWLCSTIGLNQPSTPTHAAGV
Sequence of PRKCQ (Q04759 whole entry): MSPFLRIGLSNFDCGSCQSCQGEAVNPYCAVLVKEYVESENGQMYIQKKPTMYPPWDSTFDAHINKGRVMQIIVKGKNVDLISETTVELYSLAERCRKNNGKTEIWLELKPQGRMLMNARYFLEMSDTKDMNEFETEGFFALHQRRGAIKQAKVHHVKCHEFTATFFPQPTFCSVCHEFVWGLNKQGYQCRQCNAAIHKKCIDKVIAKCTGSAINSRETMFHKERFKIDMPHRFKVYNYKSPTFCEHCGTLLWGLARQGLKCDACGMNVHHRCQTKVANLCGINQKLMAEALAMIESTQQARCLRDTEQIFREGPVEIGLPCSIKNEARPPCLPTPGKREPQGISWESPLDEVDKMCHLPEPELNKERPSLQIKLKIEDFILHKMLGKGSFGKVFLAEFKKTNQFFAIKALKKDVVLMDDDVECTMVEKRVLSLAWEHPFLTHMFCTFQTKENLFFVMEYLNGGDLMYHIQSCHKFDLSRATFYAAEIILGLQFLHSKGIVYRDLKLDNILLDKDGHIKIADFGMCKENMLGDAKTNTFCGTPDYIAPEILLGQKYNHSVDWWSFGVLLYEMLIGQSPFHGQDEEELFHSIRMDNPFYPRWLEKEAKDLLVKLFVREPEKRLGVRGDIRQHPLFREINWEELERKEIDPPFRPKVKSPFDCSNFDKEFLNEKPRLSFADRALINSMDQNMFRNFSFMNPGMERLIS
Sequence of BLK (P51451 whole entry): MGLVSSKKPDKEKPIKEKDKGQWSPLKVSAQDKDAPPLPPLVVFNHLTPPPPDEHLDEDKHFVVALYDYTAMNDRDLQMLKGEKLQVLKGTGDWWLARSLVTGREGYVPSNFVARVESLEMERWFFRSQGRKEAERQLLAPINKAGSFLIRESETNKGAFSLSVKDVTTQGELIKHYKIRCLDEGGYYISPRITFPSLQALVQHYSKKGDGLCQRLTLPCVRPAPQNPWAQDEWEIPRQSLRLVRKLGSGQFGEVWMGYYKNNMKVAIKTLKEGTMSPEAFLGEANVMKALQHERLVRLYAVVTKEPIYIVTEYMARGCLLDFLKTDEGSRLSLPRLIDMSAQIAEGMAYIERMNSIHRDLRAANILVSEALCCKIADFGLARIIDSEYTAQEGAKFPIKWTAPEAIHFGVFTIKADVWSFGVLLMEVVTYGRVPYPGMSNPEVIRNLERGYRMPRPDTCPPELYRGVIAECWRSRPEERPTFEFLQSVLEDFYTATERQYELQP

In the case of `Cc1cc(Oc2cc(NC(=O)C3CC3)ncn2)ccc1NC(=O)Nc1ccc(Cl)c(C(F)(F)F)c1` [CBT-102], the “effect on T cell surface marker CD8 (IHC)” value [1] was “no significant effect”, the remaining activity at 1 µM (PIK3CA (E545K)) was 94% and the remaining activity at 1 µM (ABL1-nonphosphorylated) was 3.3%. The remaining activity at 1 µM (FAK) was 86%, the remaining activity at 1 µM (p38-beta) was 0% and the remaining activity at 1 µM (MEK1) was 83%. The remaining activity at 1 µM (p38-alpha) was 0%, the remaining activity at 1 µM (MKK7) was 66% and the remaining activity at 1 µM (VPS34) was 80%. For the same molecule, the remaining activity at 1 µM (PIK3CA (E542K)) was 96%, the remaining activity at 1 µM (BLK) was 48% and the remaining activity at 1 µM (FES) was 68%. The remaining activity at 1 µM (FRK) was 6.1%, the remaining activity at 1 µM (PAK7) was 91% and the remaining activity at 1 µM (PRKCQ) was 95%. It also gave a remaining activity at 1 µM (MET (Y1235D)) of 79%, a remaining activity at 1 µM (EPHA7) of 4.1% and a remaining activity at 1 µM [2] of 6%. For the same molecule, the remaining activity at 1 µM (PIK3CD) was 100%, the remaining activity at 1 µM (SRPK3) was 100% and the remaining activity at 1 µM (CLK1) was 98%. For the same molecule, the pIC50 (RAW264.7 cells; Mus musculus, 72 h) was 4.64, the Max inh. (RAW264.7 cells) was 95.44% and the remaining activity at 1 µM (MAP4K4) was 3.4%. It also gave a remaining activity at 1 µM (PHKG1) of 96%, a remaining activity at 1 µM (MKNK2) of 83% and a remaining activity at 1 µM (MRCKB) of 100%. For the same molecule, the remaining activity at 1 µM (IRAK1) was 75%, the remaining activity at 1 µM [3] was 92% and the remaining activity at 1 µM (IKK-epsilon) was 100%. The “effect on T cell surface marker CD3 (IHC)” value [4] was “no significant effect”, the remaining activity at 1 µM (EGFR (E746-A750del)) was 95% and the remaining activity at 1 µM (MLK2) was 99%. For the same molecule, the remaining activity at 1 µM (LOK) was 0.1% and the remaining activity at 1 µM (TAOK3) was 9.6%.
